In patent US7396645B1, “Cholestasis signature” (priority 2002, dated 2008):
Read-outs that look alike come from different tables or passages of the source. Marks after values point to notes of the source that are not given here.

What was measured:
male Sprague-Dawley rats = details: rat
Source text: Compound dosing was based on the acute dose LD50s recorded in published reference or literature sources. […] The MTD (maximum tolerated dose) was then selected as the dose at which the animals […] 5-10% body weight during the 5-day range finding study. […] In addition, the clinical observations must show no or mild clinical signs during the whole of the range-finding study. At the next highest dose, signs and symptoms of adverse effects and exceeding those of the MTD should be seen to occur. Should these criteria not be met, the range-finding study is repeated using a modified dose range.
(§1) After determination of the MTD and FED for a compound, each compound was dissolved in a vehicle for administration on day 1 of the study (additional daily doses were stored as frozen aliquots from this initial formulation). Each compound was administered to three individual male Sprague-Dawley rats for each of the two doses (MTD and FED) for one of four different times (0.25 day, 1 day, 3 days, and 5 days), yielding a total of up to 24 animals per compound study. Vehicle choice was based on solubility of the compound, effect of food on adsorption, and the vehicles used in the literature reports examined during the FED selection investigations, described above. Generally, the route and vehicle in which the FED was defined are used. When there was a choice of routes and vehicles, oral routes were chosen over injection routes. Many compounds, especially oncolytics, are only administerable intravenously. In such cases, the compound was administered as an intravenous formulation into the tail vein. Orally administered compounds were given dissolved in either water, 1% carboxymethycellulose (CMC) or corn oil. Intravenously and intraperitoneally administered compounds were given in 0.9% saline. Subcutaneously administered compounds were given in corn oil. Animal body weights were determined at 1 day and, where appropriate, at 4 days, before necropsy, and clinical observations were made on a daily basis. Control animals were dosed with vehicle only. Three male animals were used for each dose and time combination used for the compound treatment.
(§2) Tissue Harvest and Handling: After the allocated treatment time, the tissues from the animals were harvested. […] All the tissues collected were divided to provide samples for histopathological analyses, and the remainder of each tissue was then snap-frozen. […] The parameters were measured using a Hitachi-911 clinical chemistry analysis instrument according to the manufacturer's instructions. The following blood constituents were measured: Blood Urea Nitrogen (BUN), Creatinine (CRE), Glucose (GLU), Alanine Transaminase (ALT), Aspartate Aminotrans-ferase (AST), Alkaline Phosphatase (ALP), Total Bilirubin (TBI), Sodium (SOD), Potassium (POT), Chloride (CHL), Phosphorus (PHO), Total Protein (TPR), Albumin (ALB), Cholesterol (CHO), Creatine Phosphokinase (CPK), Lactate Dehydrogenase (LDH), Carbon Dioxide (CO2), Uric Acid (UA), and Lipase. […] The parameters were measured using a Baker 9000 blood cell analysis instrument according to the manufactures instructions. The following blood constituents were measured: Leukocyte count (WBC), Differential Leukocyte counts, Erythrocyte count (RBC), Hemoglobin concentration (HGB), Hematocrit (HCT), Mean Corpuscular Volume (MCV), Mean Corpuscular Hemoglobin (MCH), Mean Corpuscular Hemoglobin Concentration (MCC), Thrombocyte Count (PLC). Histopathology: Histopathological analyses of hematoxylin and eosin-stained tissue sections were performed and peer-reviewed by board-certified (Diplomate, American College of Veterinary Pathologists) veterinary pathologists.

Cholestasis Signature = tested on: Cholestasis Signature
Experimental: as §1
as §2, with “pathologists. Preparation of Enriched mRNA: Punch Biopsies were Taken from the Frozen Tissues and were completely homogenized before being processed using the MagNA Pure robot. (Roche Diagnostics Corp., Indianapolis, Ind.) in combination with the MagNA Pure LC RNA Isolation kit II (Roche Diagnostics Corp). The amount of lysis buffer was adjusted to allow 1 ml per 50 mg for liver tissue, or 1 ml per 80 mg for all other tissues. After complete homogenization and before loading of the samples into the 32-well MagNA Pure plate, the samples were syringed 5-6 times using a 20-gauge 3-ml syringe to ensure a smooth solution for robotic processing. Tissue sample processing was performed in duplicate wells (loading 150 μl of homogenized sample and 150 μl of additional lysis buffer to each well) of the MagNA Pure LC, which is programmed to extract mRNA using oligo-dT selection technology into a final elution volume of 100 μl.” for “pathologists.”

livers of rats = tested on: livers of rats
Experimental: as §1
as §2, with “pathologists. Preparation of Enriched mRNA: Punch Biopsies were Taken from the Frozen Tissues and were completely homogenized before being processed using the MagNA Pure robot. (Roche Diagnostics Corp., Indianapolis, Ind.) in combination with the MagNA Pure LC RNA Isolation kit II (Roche Diagnostics Corp). The amount of lysis buffer was adjusted to allow 1 ml per 50 mg for liver tissue, or 1 ml per 80 mg for all other tissues. After complete homogenization and before loading of the samples into the 32-well MagNA Pure plate, the samples were syringed 5-6 times using a 20-gauge 3-ml syringe to ensure a smooth solution for robotic processing. Tissue sample processing was performed in duplicate wells (loading 150 μl of homogenized sample and 150 μl of additional lysis buffer to each well) of the MagNA Pure LC, which is programmed to extract mRNA using oligo-dT selection technology into a final elution volume of 100 μl.” for “pathologists.”

[1] = 386 mg/kg orally in corn oil, 3 days, vs vehicle control, average of 3 animals

Compound	raised serum levels of ALP and TBI compared with vehicle-treated control animals (male Sprague-Dawley rats; in vivo, po)	Fold change in serum alkaline phosphatase (male Sprague-Dawley rats; in vivo, po, 178 mg/kg) [fold]	Fold change in serum alkaline phosphatase and total bilirubin (male Sprague-Dawley rats; in vivo, po, 178 mg/kg) [fold]	Fold change in serum total bilirubin (male Sprague-Dawley rats; in vivo, po, 178 mg/kg) [fold]	Sequence Projection Score (SPS) (Cholestasis Signature; rat, in vivo)	nuclear/cytoplasmic condensation (apoptosis) and/or necrosis in liver (livers of rats; rat, in vivo)	steatosis (livers of rats; rat, in vivo)	Fold change in serum alkaline phosphatase (male Sprague-Dawley rats; in vivo, po, 300 mg/kg) [fold]	Fold change in serum alkaline phosphatase and total bilirubin (male Sprague-Dawley rats; in vivo, po, 300 mg/kg) [fold]	Fold change in serum total bilirubin (male Sprague-Dawley rats; in vivo, po, 300 mg/kg) [fold]	increased hepatocyte enlargement and increased eosinophilic granular cytoplasm (livers of rats; rat, in vivo)	Fold change in serum alkaline phosphatase (male Sprague-Dawley rats; in vivo, po, 700 mg/kg) [fold]	Fold change in serum alkaline phosphatase (male Sprague-Dawley rats; [1]) [fold]	Fold change in serum alkaline phosphatase and total bilirubin (male Sprague-Dawley rats; [1]) [fold]	Fold change in serum total bilirubin (male Sprague-Dawley rats; [1]) [fold]	Sequence Projection Score (SPS) (Cholestasis Signature; rat liver expression data vs Cholestasis Signature, maximum score of training treatments normalised to 100, dose and time not given)	steatosis (livers of rats; rat liver histopathology, training-set treatments)
Clc1ccccc1C(c1ccccc1)(c1ccccc1)n1ccnc1 [CLOTRIMAZOLE, 1-(o-chloro-α,α-diphenylbenzyl)imidazole]	at least 2 fold	1.4	2.9	2.0	33*	mild to moderate	moderate to very severe	–	–	–	–	–	–	–	–	–	–
CC/C(=C(/CC)c1ccc(O)cc1)c1ccc(O)cc1 [DIETHYLSTILBESTROL, 3,4-bis-(4-hydroxyphenyl)-3-hexene]	at least 2 fold	–	–	–	34*	mild to moderate	–	2.0	11.5	5.8	mild to severe	–	–	–	–	–	–
Cc1ccc(C)c(OCCCC(C)(C)C(=O)O)c1 [GEMFIBROZIL, 5-(2,5-dimethylphenoxy)-2,2-dimethylpentanoic acid]	at least 2 fold	–	–	–	28*	mild to moderate	–	–	–	–	mild to severe	2.1	–	–	–	–	–
c1ccc2c(c1)Nc1ccccc1S2 [PHENOTHIAZINE, 2,3:5,6-dibenzo-1,4-thiazine]	–	–	–	–	–	–	–	–	–	–	–	–	−1.1	3.4	3.7	49*	moderate to very severe
